Data reported in patent US20230045421A1 (priority 2018, published 2023).
Where two headings read alike, the source gives them in different places.

Tested on: HBV rcDNA
Test: HepDE19 assay with bDNA quantitation of HBV rcDNA
Assay type: cell-based, hepatitis B virus
Method in brief: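 HepDE19 cells (HepG2-derived, Tet-regulated HBV replication) were deprived of tetracycline and then exposed to compounds for 7 days at 37 °C in 0.5% DMSO, 8-point titration from 25 μM. rcDNA was quantified by bDNA and EC50/EC90 came from 4-parameter fits. CC50 was measured by CellTiter-Glo ATP content on replicate plates after 4 days.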

[1] = HepDE19 assay, inhibition of formation of relaxed circular DNA (rcDNA), bDNA quantitation, read-out: DE-19bDNA EC50
[2] = HepDE19 assay, inhibition of formation of rcDNA, read-out: DE-19bDNA EC50
[3] = Hepatitis B virus, HepDE19, read-out: DE-19bDNA EC50 (μM), HepDE19 assay, inhibition of formation of rcDNA
[4] = Hepatitis B virus, HepDE19, HepDE19 assay, inhibition of formation of rcDNA, read-out: DE-19bDNA EC50
[5] = read-out: DE-19bDNA EC50, HepDE19 assay, inhibition of formation of relaxed circular DNA (rcDNA), bDNA quantitation

With CC(C)CN(C(=O)Nc1ccc(F)c(Cl)c1)C(C)c1c[nH]c(=O)c2c(F)cccc12 (single isomer, unassigned) [Compound 361, 3-(3-Chloro-4-fluorophenyl)-1-(1-(8-fluoro-1-oxo-1,2-dihydroisoquinolin-4-yl)ethyl)-1-isobutylurea] the EC50 [1] was 0.012 µM.

CC(c1c[nH]c(=O)c2ccccc12)N(CCC(=O)N(C)C)C(=O)Nc1ccc(F)c(Cl)c1 (single isomer, unassigned) [Compound 106, 3-(3-(3-Chloro-4-fluorophenyl)-1-(1-(1-oxo-1,2-dihydroisoquinolin-4-yl)ethyl)ureido)-N,N-dimethylpropanamide] showed an EC50 [2] of 0.08 µM.

Molecule C[C@H](c1c[nH]c(=O)c2ccccc12)N(C)C(=O)Nc1ccnc(C(F)(F)F)c1 (single isomer, unassigned) [Compound 95] has an EC50 [3] of 1.1 µM.

For CC(c1cn(Cc2nc[nH]n2)c(=O)c2ccccc12)N(C)C(=O)Nc1ccc(F)c(Cl)c1 (single isomer, unassigned) [Compound 270, 1-(1-(2-((1H-1,2,4-Triazol-3-yl)methyl)-1-oxo-1,2-dihydroisoquinolin-4-yl)ethyl)-3-(3-chloro-4-fluorophenyl)-1-methylurea], the EC50 [2] was 22 µM.

Cc1ncc(C(C)N(C)C(=O)Nc2ccc(F)c(Cl)c2)c2ccccc12 (single isomer, unassigned) [Compound 353, 3-(3-Chloro-4-fluorophenyl)-1-methyl-1-(1-(1-methylisoquinolin-4-yl)ethyl)urea] gave an EC50 [1] of 0.19 µM.

Molecule Cc1cc(NC(=O)N(CC(F)F)[C@H](C)c2c[nH]c(=O)c3ccccc23)ccc1F [Compound 97, (R)-3-(3-Methyl-4-fluorophenyl)-1-(2,2-difluoroethyl)-1-(1-(1-oxo-1,2-dihydroisoquinolin-4-yl)ethyl)urea] has an EC50 [4] of 0.11 µM.

CC(c1c[nH]c(=O)c2ccccc12)N(CCNCC(F)(F)F)C(=O)Nc1ccc(F)c(Cl)c1 (single isomer, unassigned) [Compound 162, 3-(3-Chloro-4-fluorophenyl)-1-(1-(1-oxo-1,2-dihydroisoquinolin-4-yl)ethyl)-1-(2-((2,2,2-trifluoroethyl)amino)ethyl)urea] was tested, and the EC50 [2] was 0.58 µM.

CC(c1c[nH]c(=O)c2ccccc12)N(C[C@H]1CC[C@H](O)CC1)C(=O)Nc1ccc(F)c(Cl)c1 (mixture of isomers) [Compound 221, trans-3-(3-Chloro-4-fluorophenyl)-1-((4-hydroxycyclohexyl)methyl)-1-(1-(1-oxo-1,2-dihydroisoquinolin-4-yl)ethyl)urea] showed an EC50 [4] of 0.21 µM.

For CC(c1c[nH]c(=O)c2ccccc12)N(CCCCO)C(=O)Nc1ccc(F)c(Cl)c1 (single isomer, unassigned) [Compound 150, 3-(3-Chloro-4-fluorophenyl)-1-(4-hydroxybutyl)-1-(1-(1-oxo-1,2-dihydroisoquinolin-4-yl)ethyl)urea], the EC50 [2] was 0.01 µM.

Work on COc1ncc(CN(C(=O)Nc2ccc(F)c(Cl)c2)C2CC2)c2ccccc12 [Compound 34, 3-(3-Chloro-4-fluorophenyl)-1-cyclopropyl-1-((1-methoxyisoquinolin-4-yl)methyl)urea] yielded an EC50 [4] of 3.7 µM.

CC(c1c[nH]c(=O)c2c(F)c(F)ccc12)N(C)C(=O)Nc1cccc(F)c1 (single isomer, unassigned) [Compound 455, 1-(1-(7,8-Difluoro-1-oxo-1,2-dihydroisoquinolin-4-yl)ethyl)-3-(3-fluorophenyl)-1-methylurea] gave an EC50 [5] of 6.3 µM.

CC(c1c[nH]c(=O)c2cc(F)c(F)cc12)N(C)C(=O)Nc1cccc(F)c1F (single isomer, unassigned) [Compound 431, 1-(1-(6,7-Difluoro-1-oxo-1,2-dihydroisoquinolin-4-yl)ethyl)-3-(2,3-difluorophenyl)-1-methylurea] gave an EC50 [1] of 0.29 µM.

For CC(c1c[nH]c(=O)c2ccccc12)N(CCCN)C(=O)Nc1ccc(F)c(Cl)c1 (racemic) [Compound 157, 1-(3-aminopropyl)-3-(3-chloro-4-fluorophenyl)-1-(1-(1-oxo-1,2-dihydroisoquinolin-4-yl)ethyl)urea], the EC50 [4] was 23 µM.

For COCCN(C(=O)Nc1ccc(F)c(Cl)c1)C(C)c1c[nH]c(=O)c2ccccc12 (single isomer, unassigned) [Compound 66, 3-(3-Chloro-4-fluorophenyl)-1-(2-methoxyethyl)-1-(1-(1-oxo-1,2-dihydroisoquinolin-4-yl)ethyl)urea], the EC50 (read-out: DE-19bDNA EC50, HepDE19 assay, inhibition of formation of rcDNA) was 0.09 µM.

With CC(c1c[nH]c(=O)c2c(F)c(F)ccc12)N(C)C(=O)Nc1cc(F)c(F)c(F)c1 (single isomer, unassigned) [Compound 443, 1-(1-(7,8-Difluoro-1-oxo-1,2-dihydroisoquinolin-4-yl)ethyl)-1-methyl-3-(3,4,5-trifluorophenyl)urea] the EC50 [1] was 0.04 µM.

Molecule CC(c1c[nH]c(=O)c2ccccc12)N(C[C@@H]1CCCO1)C(=O)Nc1ccc(F)c(Cl)c1 (single isomer, unassigned) [Compound 161] has an EC50 [2] of 0.15 µM.

CC(c1c[nH]c(=O)c2ccccc12)N(CCC#N)C(=O)Nc1ccc(F)c(Cl)c1 (single isomer, unassigned) [Compound 112, 3-(3-Chloro-4-fluorophenyl)-1-(2-cyanoethyl)-1-(1-(1-oxo-1,2-dihydroisoquinolin-4-yl)ethyl)urea] gave an EC50 [2] of 2.8 µM.

CC(c1c[nH]c(=O)c2ccccc12)N(C[C@@H]1CCCO1)C(=O)Nc1ccc(F)c(Cl)c1 (single isomer, unassigned) [Compound 160] was tested, and the EC50 [2] was 23 µM.

Work on CC(c1cnc(OCc2nc[nH]n2)c2cc(F)c(F)cc12)N(C)C(=O)Nc1ccc(F)c(Cl)c1 (single isomer, unassigned) [Compound 362, 1-(1-(1-((1H-1,2,4-Triazol-3-yl)methoxy)-6,7-difluoroisoquinolin-4-yl)ethyl)-3-(3-chloro-4-fluorophenyl)-1-methylurea] yielded an EC50 [1] of 0.89 µM.

[2H]C([2H])([2H])C([2H])([2H])N(C(=O)Nc1ccc(F)c(Cl)c1)[C@H](C)c1c[nH]c(=O)c2ccccc12 [Compound 99, (R)-3-(3-Chloro-4-fluorophenyl)-1-(ethyl-d5)-1-(1-(1-oxo-1,2-dihydroisoquinolin-4-yl)ethyl)urea] was tested, and the EC50 [4] was 0.03 µM.

CC(c1c[nH]c(=O)c2cc(F)c(F)cc12)N(C)C(=O)NCc1ccc(F)c(F)c1 (single isomer, unassigned) [Compound 477, 1-(1-(6,7-Difluoro-1-oxo-1,2-dihydroisoquinolin-4-yl)ethyl)-3-(3,4-difluorobenzyl)-1-methylurea] gave an EC50 [1] of 10 µM.

With CCN(C(=O)Nc1ccc(F)c(Cl)c1)C(c1c[nH]c(=O)c2ccccc12)C(C)C (single isomer, unassigned) [Compound 54, 3-(3-Chloro-4-fluorophenyl)-1-ethyl-1-(2-methyl-1-(1-oxo-1,2-dihydroisoquinolin-4-yl)propyl)urea] the EC50 [3] was 20 µM.

With CC(c1cn(Cc2c[nH]nn2)c(=O)c2ccccc12)N(C)C(=O)Nc1ccc(F)c(Cl)c1 (single isomer, unassigned) [Compound 276, 1-(1-(2-((1H-1,2,3-Triazol-4-yl)methyl)-1-oxo-1,2-dihydroisoquinolin-4-yl)ethyl)-3-(3-chloro-4-fluorophenyl)-1-methylurea] the EC50 [2] was 2.7 µM.

CC(c1c[nH]c(=O)c2cc(F)c(F)cc12)N(C)C(=O)NCc1ccc(F)c(Cl)c1 (single isomer, unassigned) [Compound 483, 3-(3-Chloro-4-fluorobenzyl)-1-(1-(6,7-difluoro-1-oxo-1,2-dihydroisoquinolin-4-yl)ethyl)-1-methylurea] showed an EC50 [1] of 0.27 µM.

CC(c1c[nH]c(=O)c2ccccc12)N(Cc1cscn1)C(=O)Nc1ccc(F)c(Cl)c1 (single isomer, unassigned) [Compound 312, 3-(3-Chloro-4-fluorophenyl)-1-(1-(1-oxo-1,2-dihydroisoquinolin-4-yl)ethyl)-1-(thiazol-4-ylmethyl)urea] was tested, and the EC50 [1] was 4.6 µM.

Work on CC(c1c[nH]c(=O)c2ccccc12)N(Cc1ccccn1)C(=O)Nc1ccc(F)c(Cl)c1 (single isomer, unassigned) [Compound 305, 3-(3-Chloro-4-fluorophenyl)-1-(1-(1-oxo-1,2-dihydroisoquinolin-4-yl)ethyl)-1-(pyridin-2-ylmethyl) urea] yielded an EC50 [1] of 0.59 µM.

Work on CC(c1c[nH]c(=O)c2c(F)c(F)ccc12)N(C)C(=O)Nc1cc(Cl)c(F)c(Cl)c1 (single isomer, unassigned) [Compound 451, 3-(3,5-Dichloro-4-fluorophenyl)-1-(1-(7,8-difluoro-1-oxo-1,2-dihydroisoquinolin-4-yl)ethyl)-1-methylurea] yielded an EC50 [1] of 3.2 µM.

CCN(C(=O)Nc1ccc(F)c(Cl)c1)C(c1cnc(OC)c2ccccc12)C(C)C (single isomer, unassigned) [Compound 44, 3-(3-Chloro-4-fluorophenyl)-1-ethyl-1-(1-(1-methoxyisoquinolin-4-yl)-2-methylpropyl)urea] showed an EC50 [4] of 25 µM.

CC(c1c[nH]c(=O)c2cc(F)c(F)cc12)N(C)C(=O)Nc1ccccc1 (single isomer, unassigned) [Compound 398, 1-(1-(6,7-Difluoro-1-oxo-1,2-dihydroisoquinolin-4-yl)ethyl)-1-methyl-3-phenylurea] showed an EC50 [5] of 16 µM.

CNC(=O)CN(C(=O)Nc1ccc(F)c(Cl)c1)C(C)c1c[nH]c(=O)c2ccccc12 (stereo not shown) [Compound 116, 2-(3-(3-Chloro-4-fluorophenyl)-1-(1-(1-oxo-1,2-dihydroisoquinolin-4-yl)ethyl)ureido)-N-methylacetamide] gave an EC50 [4] of 1 µM.

For COCCN(Cc1c[nH]c(=O)c2ccccc12)C(=O)Nc1ccc(F)c(Cl)c1 [Compound 50, 3-(3-Chloro-4-fluorophenyl)-1-(2-methoxyethyl)-1-((1-oxo-1,2-dihydroisoquinolin-4-yl)methyl)urea], the EC50 [3] was 0.47 µM.
